The target in test [1] is T1, D(3) dopamine receptor (Homo sapiens, UniProt P35462). The test can be described thus: Displacement of [3H]-sulpiride from human dopamine D3 receptor expressed in HEK293 cells after 150 mins by liquid scintillation counting. It is filed as cell-based. A general note: Displacement assays read how much labelled ligand stays bound in the presence of the test substance.

The target in test [2] is T2, D(2) dopamine receptor (Homo sapiens, UniProt P14416). The test can be described thus: Displacement of [3H]-sulpiride from human dopamine D2 receptor expressed in HEK293 cells after 150 mins by liquid scintillation counting. It counts as cell-based.
T2 sequence (P14416 whole entry): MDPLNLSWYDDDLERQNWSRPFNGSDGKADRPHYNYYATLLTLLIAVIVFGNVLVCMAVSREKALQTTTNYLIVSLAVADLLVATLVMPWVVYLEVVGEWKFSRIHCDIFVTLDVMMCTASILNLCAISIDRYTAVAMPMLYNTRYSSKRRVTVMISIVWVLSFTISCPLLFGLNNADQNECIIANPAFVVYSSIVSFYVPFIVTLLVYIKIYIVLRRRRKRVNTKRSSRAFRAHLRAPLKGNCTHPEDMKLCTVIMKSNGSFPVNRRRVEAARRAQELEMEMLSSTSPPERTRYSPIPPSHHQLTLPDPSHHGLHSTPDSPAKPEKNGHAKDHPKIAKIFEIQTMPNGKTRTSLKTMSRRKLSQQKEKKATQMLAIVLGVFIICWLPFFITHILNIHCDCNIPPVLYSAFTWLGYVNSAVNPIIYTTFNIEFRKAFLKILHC
The species entered for a further test is Homo sapiens. Put plainly: Selectivity ratio of Ki for human dopamine D2 receptor to Ki for human dopamine D3 receptor.
For test [3], the target named is T1, D(3) dopamine receptor. Put plainly: Displacement of [3H]-sulpiride from human dopamine D3 receptor expressed in HEK293 cells at 100 nM after 150 mins by liquid scintillation counting. It counts as cell-based.
Test [4] addresses T2, D(2) dopamine receptor. The test can be described thus: Displacement of [3H]-sulpiride from human dopamine D2 receptor expressed in HEK293 cells at 100 nM after 150 mins by liquid scintillation counting. It counts as cell-based.

The term pKi denotes the negative decadic logarithm of the Ki, by convention in mol/L. As usually defined, the inhibition is the change of the read-out against control, counted positive when it falls.

pKi: −log10 of the molar value. “And” between values parts separate entries of the source, which are not always exact repeats. Equal values may be shown once.

T1 sequence (P35462 whole entry): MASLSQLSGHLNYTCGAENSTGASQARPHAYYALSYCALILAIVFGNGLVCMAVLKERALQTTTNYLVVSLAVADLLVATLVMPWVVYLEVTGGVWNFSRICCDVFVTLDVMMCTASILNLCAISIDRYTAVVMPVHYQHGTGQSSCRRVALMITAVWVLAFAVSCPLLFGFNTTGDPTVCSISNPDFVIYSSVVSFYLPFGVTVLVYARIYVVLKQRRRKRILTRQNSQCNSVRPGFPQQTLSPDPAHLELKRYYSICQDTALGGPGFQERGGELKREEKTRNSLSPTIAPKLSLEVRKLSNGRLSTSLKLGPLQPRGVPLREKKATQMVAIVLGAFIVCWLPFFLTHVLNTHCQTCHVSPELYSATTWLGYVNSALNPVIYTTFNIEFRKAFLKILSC

As to `COc1ccc2nc(NC(=O)CCCCN3CCN(c4ccc(Cl)cc4)CC3)sc2c1`, the pKi is 8.03 on D(3) dopamine receptor [1] and 6.71 at D(2) dopamine receptor [2]. The Ratio Ki in the test filed under Homo sapiens was 21.

Take `O=C(CCCCN1CCN(c2cccc(Cl)c2Cl)CC1)Nc1nc2ccccc2s1`: the inhibition was 34.8% and 12.8% at D(3) dopamine receptor [3]; 30.1% and 6.9% on D(2) dopamine receptor [4].

In the case of `O=C(CCCCN1CCN(c2ccc(Cl)cc2)CC1)Nc1nc2cc(Cl)ccc2o1`, the inhibition on D(3) dopamine receptor [3] was 1.7%; at D(2) dopamine receptor [4], -4.1%.

Take `COc1ccc2nc(NC(=O)CCCCN3CCN(c4ccc(Cl)cc4F)CC3)sc2c1`: the inhibition on D(3) dopamine receptor [3] is 33.4% and 28.7%; on D(2) dopamine receptor [4] it was 3.1% and 2.6%.

In the case of `O=C(CCCCN1CCC(O)(c2ccc(Cl)cc2)CC1)Nc1nc2ccccc2s1`, the inhibition on D(3) dopamine receptor [3] is 25.8% and 7.9%; at D(2) dopamine receptor [4] it was 33.3% and 24.8%.

With `O=C(CCCCN1CCN(c2ccc(Cl)cc2)CC1)Nc1nc2ccc([N+](=O)[O-])cc2s1`, the inhibition at D(3) dopamine receptor [3] came to 45.2%; at D(2) dopamine receptor [4], 30.2%.

Take `O=C(CCCCN1CCN(c2ccc(Cl)cc2)CC1)Nc1nc2ccccc2s1`: the inhibition on D(3) dopamine receptor [3] was found to be 65.2%; at D(2) dopamine receptor [4], 57.3%.

For `O=C(CCCCN1CCN(c2ccc(Cl)cc2Cl)CC1)Nc1nc2ccccc2s1`, the inhibition is 46% and 48.3% on D(3) dopamine receptor [3]; 14.5% and 15.2% on D(2) dopamine receptor [4]. Moreover, the values for the negative-log Ki (pKi) at D(3) dopamine receptor [1] and at D(2) dopamine receptor [2] were 7.06 and 5.25, respectively. Also, the Ratio Ki in the test filed under Homo sapiens amounted to 63.8.

Regarding `O=C(CCCCN1CCN(c2ccccc2F)CC1)Nc1nc2ccccc2s1`, the inhibition at D(3) dopamine receptor [3] is 75.1% and 63.1%. Moreover, the figures for the negative-log Ki (pKi) on D(3) dopamine receptor [1] and on D(2) dopamine receptor [2] were 8.41 and 6.76, respectively. Also, in the test listed under Homo sapiens, the Ratio Ki was found to be 45.

For the compound `COc1ccc2nc(NC(=O)CCCCN3CCN(c4ccccc4Cl)CC3)sc2c1`, the inhibition at D(3) dopamine receptor [3] is 60.5% and 81.6%; at D(2) dopamine receptor [4], 78.8% and 54.5%.

Consider `O=C(CCCCN1CCN(c2ccc(Cl)cc2)CC1)Nc1nc2ccccc2[nH]1`, for which the inhibition at D(3) dopamine receptor [3] was 35.5%; at D(2) dopamine receptor [4], 29.9%.

On to `O=C(CCCCN1CCN(c2ccc(Cl)cc2)CC1)Nc1nc2ccccc2o1`, for which the inhibition stood at 56.1% on D(3) dopamine receptor [3] and 40.9% at D(2) dopamine receptor [4].

On to `O=C(CCCCN1CCN(c2cccc(C(F)(F)F)c2)CC1)Nc1nc2ccccc2[nH]1`, for which the inhibition at D(3) dopamine receptor [3] was 27.7% and 34.9%; on D(2) dopamine receptor [4], 34% and 14.3%.

`Cc1ccc2nc(NC(=O)CCCCN3CCN(c4ccc(Cl)cc4)CC3)sc2c1`: the inhibition stood at 13.4% on D(3) dopamine receptor [3] and 1% at D(2) dopamine receptor [4].

For `O=C(CCCCN1CCN(c2ccc(Cl)cc2)CC1)Nc1nc2ccc(Cl)cc2s1`, the inhibition is 30.3% and 26.2% on D(3) dopamine receptor [3]; 7% and 11% on D(2) dopamine receptor [4].

The values above are taken from ChEMBL document CHEMBL3603825, “Synthesis and evaluation of arylpiperazine-reverse amides as biased dopamine D3 receptor ligands” (Bioorg Med Chem, 2015).
